Patent publication US20140161720A1, “TREATMENT OF ANGIOGENIC- OR VASCULAR-ASSOCIATED DISEASES” (THE GENERAL HOSPITAL CORPORATION, priority 2011, published 2014)
“Also recorded” adds a separate entry of the source.

Tests used:
[1] = Toxicity of intraperitoneal DAL in SCID mice; type: in vivo; settings: intraperitoneal doses of up to 100 mg/kg
Description: A cell-based readout system was used for compound selection. For the cell-based screening, an optimal cell density of 10,000 breast cancer MDA-MB-231 cells/well was selected to produce the most prominent signal. The plated cells were incubated with each library compound, washed with PBS, and the Cell Titer-Glo (Promega) reagent was used to detect the number of cells remaining attached in each well. This ATP-based detection has a linear relationship between the luminescent signal and the number of cells per well. Of the 50,000 compounds screened, 86 library compounds (0.172% of screened compounds) were selected at 1.67 μM concentration for the second screening step. […] As a further test of toxicity, DAL was injected intraperitoneally at 100 mg/kg in SCID mice and signs of toxicity including cachexia, ruffled fur, diarrhea, anorexia, skin ulceration, and toxic death were monitored.
A screening strategy was developed to identify potential agents that target adhesion of endothelial cells or cancer cells to their substrate. […] The initial screening step quantified the number of cells remaining attached to their wells following incubation with each compound and subsequent washing steps. […] The agents that affect cell adhesion can be monitored through remodeling of actin filaments. […] Changes in actin assembly and cell shape after treatment with 12 compounds were determined. […]

[2] = test system: orthotopic E0771 mammary tumors; assay: Tumor growth delay study, E0771; type: in vivo, female SCID mice; settings: start ~100 mm^3, 37.5 mg/kg daily i.p.
Description: (§1) To assess the anti-tumor effects of DAL, female SCID mice bearing orthotopic 4T1 or E0771 mammary tumors were treated with daily i.p. injections of 37.5 mg/kg DAL or saline. In order to calculate tumor volumes, the major and minor axis diameters were measured with calipers and the tumor volume was calculated by assuming a spherical shape based on the average of these two dimensions. The tumors were implanted in the mammary fat pad and allowed to grow to a starting size (small ˜100 mm^3 tumors for E0771, large ˜200 mm^3 tumors for 4T1) over ˜2 weeks. To ensure that tumors in the two groups were of similar growth rates, the treatment with saline or DAL was begun in pairs of tumors with similar sizes and growth times. Tumor volumes were measured every other day until the tumors reached an average of ˜10 mm in diameter. Tumor growth was quantified with the doubling rate, and calculated by fitting an exponential growth curve to the data for tumor size versus time.
(§2) As shown in Example 3, DAL has an antivascular effect in orthotopic mammary tumors in mice. Thus, the antitumor effect of DAL was next assessed. […] The effect of DAL on the growth of orthotopic 4T1 and E0771 mammary tumors with daily treatment of DAL or saline was evaluated (FIG. 4A). 37.5 mg/kg of DAL was used for these experiments based on the pharmacokinetics results as well as in vitro and in vivo data. […]

[3] = parameters: species or system female SCID mice; settings: mouse, in vivo, ip, 37.5 mg/kg
Description: as §1, §2

[4] = test system: Cdc42; assay: Cdc42 activation pull-down assay (PAK-PBD) in HUVECs; type: cell-based, human
Description: Rac1 and cdc42 activities were measured with a Rac1 (BK035) activation assay biochem kit (Cytoskeleton) according to the manufacturer protocol. In brief, human umbilical vein endothelial cells (HUVECs) were bovine brain extract-starved for 12 hours in 1% FBS-EGM (Lonza) and pretreated with various concentrations of DAL for 30 minutes at 37° C. The HUVECs were then stimulated with VEGF at […] for 15 minutes at 37° C. After stimulation, the cells were immediately incubated on ice, washed twice with PBS, and lysed with lysis buffer. The lysates were pre-cleared and added with 15 μl of PAK-PBD beads for pull-down of activated Rac1 or cdc42. After rocking at 4° C. for 1 hour, the beads were washed once and boiled at 100° C. for 2 minutes. The protein lysates were then resolved in a 8-16% gradient gel (Invitrogen) and transferred to a PVDF membrane. Primary antibodies (anti-Rac1, 1:1000, cytoskeleton or anti-cdc42, 1:1000, cell signaling) were added to bind to the protein overnight at 4° C., followed by incubation with HRP-conjugated secondary antibodies. Protein activity was measured by the standard ECL method (Amersham).
Without wishing to be bound by theory, DAL brings about its antivascular effects by destabilizing cell adhesion through the actin cytoskeleton. […] Therefore, potential targets of DAL in signaling pathways involved in actin remodeling were evaluated. […]

## CC1(C)C=CC2=C(O1)C(=O)c1ccccc1C2=O [DAL, dehydro-alpha-lapachone]
[1]
  signs of toxicity (cachexia, ruffled fur, diarrhea, anorexia, skin ulceration, toxic death): low toxicity; also recorded: no signs of toxicity
[2]
  tumor volume doubling time: 4.77 ± 0.58 days
[3]
  weight loss or other signs of toxicity: no weight loss or other noted signs of toxicity
[4]
  Cdc42 activity: no effect
